The subject of assay [1] is purified, recombinant DP8 and DP9. In words: Inhibition of enzymatic activity of DP8/9. It counts as biochemical. As to conditions: highest test item concentration 25 μM; for IC50: read-out: meas. IC50 (DP8/9). The method, boiled down:
(§1)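 Recombinant human DPIV (Sf9-derived, approx. 1 nM) and recombinant DP8/DP9 in 0.05M Tris/HCl pH 7.5 with 0.05% Triton, 0.05% BSA, 2 mM MgCl2. Substrates were Gly-Pro-AMC at 50 μM (ex 380/em 460 nm, read at 0–120 min) or (Ala-Pro)2-R110 at 1 μM (ex 488/em 530 nm). IC50 from ≥16 log2 dilutions, top 25 μM.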

The subject of assay [2] is NHEK cells. The assay can be described thus: Inhibition of DNA synthesis and proliferation of normal human epidermal keratinocytes (NHEK). Conditions: Homo sapiens, EGF-stimulated NHEK, BrdU incorporation, read-out: Supp. DNA Synt. NHEK IC50. It counts as cell-based. The method, boiled down:
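Primary human keratinocytes were grown 48 h in serum-free medium with EGF and pituitary extract, with compounds at 0.1–100 μM. DNA synthesis was measured by BrdU incorporation ELISA relative to untreated controls (100%), and IC50 was derived graphically.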
(In general: Uptake of a labelled nucleoside into DNA is a usual measure of proliferation.)

Assay [3] concerns T lymphocytes (T cells). The assay can be described thus: Suppression of DNA synthesis of PHA-stimulated T lymphocytes. In kind it is cell-based. Conditions: T-cell, tritium thymidine incorporation, read-out: Supp. DNA Synt. T-cell IC50. The method, boiled down:
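Healthy-donor PBMC and nylon-wool-purified T cells in serum-free AIMV medium were stimulated 48 h with 1 µg/ml PHA, with compound (0.1–250 µM) present throughout. IC50 was estimated graphically from proliferation relative to PHA-activated T cells without compound.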

Assay [4] has as its target T1, cytosolic aminopeptidase (cAAP) purified from Jurkat cells (Homo sapiens, UniProt P55786).
T1 construct: The cytosolic aminopeptidase (cAAP) was purified from Jurkat cells; endogenous in cells; host or cells: Jurkat cells (enzyme purified from them)
The assay can be described thus: Inhibition of enzymatic activity of cytosolic aminopeptidase (cAAP). As to conditions: highest test item concentration 25 μM; for IC50: read-out: meas. IC50 (cAAP). It counts as biochemical.

For assay [5], the system named is SZ95 cells. The assay can be described thus: Inhibition of DNA synthesis and proliferation of immortalized human sebocytes SZ95. As to conditions: Homo sapiens, EGF-stimulated SZ95 sebocytes, tritium thymidine incorporation; read-out: Supp. DNA Synt. SZ95 IC50. In kind it is cell-based. The method, boiled down: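 EGF-stimulated SZ95 sebocytes in serum-free Sebomed Complete, treated with test items at 0.1–100 μM. DNA synthesis read by 3H-thymidine incorporation (beta counting), expressed relative to untreated cells (100%). IC50 for proliferation suppression derived graphically.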

In assay [6] the target is T2, aminopeptidase N (APN), purified recombinant human enzyme (Homo sapiens, UniProt P15144).
T2 construct: made in house; host or cells: ECV cells (transfected)
T2 sequence (P15144 whole entry): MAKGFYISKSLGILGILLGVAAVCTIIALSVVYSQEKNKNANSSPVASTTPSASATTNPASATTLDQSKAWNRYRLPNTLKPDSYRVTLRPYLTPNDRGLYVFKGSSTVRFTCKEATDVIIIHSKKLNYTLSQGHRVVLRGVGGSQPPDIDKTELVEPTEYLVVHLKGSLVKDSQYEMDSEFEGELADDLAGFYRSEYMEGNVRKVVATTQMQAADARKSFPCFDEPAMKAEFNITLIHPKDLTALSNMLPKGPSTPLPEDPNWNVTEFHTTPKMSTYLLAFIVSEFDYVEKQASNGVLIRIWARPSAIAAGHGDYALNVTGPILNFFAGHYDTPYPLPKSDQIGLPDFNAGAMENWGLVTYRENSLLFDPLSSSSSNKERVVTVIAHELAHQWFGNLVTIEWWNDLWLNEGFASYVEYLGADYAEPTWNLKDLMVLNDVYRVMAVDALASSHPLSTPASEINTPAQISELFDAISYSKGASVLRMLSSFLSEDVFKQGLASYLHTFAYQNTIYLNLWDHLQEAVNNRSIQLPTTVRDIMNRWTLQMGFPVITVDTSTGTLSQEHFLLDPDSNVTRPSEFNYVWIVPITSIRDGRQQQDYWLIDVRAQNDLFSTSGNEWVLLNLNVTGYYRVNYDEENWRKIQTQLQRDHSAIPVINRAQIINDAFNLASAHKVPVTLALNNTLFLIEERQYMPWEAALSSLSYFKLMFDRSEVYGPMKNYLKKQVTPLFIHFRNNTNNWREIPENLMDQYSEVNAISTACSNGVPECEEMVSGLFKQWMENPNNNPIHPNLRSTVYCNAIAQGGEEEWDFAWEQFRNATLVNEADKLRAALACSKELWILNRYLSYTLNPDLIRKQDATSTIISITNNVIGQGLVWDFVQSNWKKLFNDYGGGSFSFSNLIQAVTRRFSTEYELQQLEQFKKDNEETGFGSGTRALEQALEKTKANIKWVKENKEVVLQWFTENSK
The assay can be described thus: Inhibition of enzymatic activity of aminopeptidase N (fluorogenic substrate hydrolysis). It counts as biochemical. Conditions: highest test item concentration 25 μM; for IC50: read-out: meas. IC50 (APN). The method, boiled down: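 Recombinant human APN from transfected ECV cells was used at approx. 1 nM final, in 0.05M TRIS/HCl pH 7.5 with 0.05% Triton, 0.05% BSA and 2 mM MgCl2. Fluorescence release was read from H-Ala-AMC (50 μM) or (Ala-)2-R110 (1 μM). IC50 values came from at least 16 log2 dilutions starting at 25 μM top concentration.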

Assay [7] deals with T3, purified, recombinant human DPIV (Homo sapiens, UniProt P27487).
T3 construct: made in house; host or cells: Sf9 insect cells
T3 sequence (P27487 whole entry): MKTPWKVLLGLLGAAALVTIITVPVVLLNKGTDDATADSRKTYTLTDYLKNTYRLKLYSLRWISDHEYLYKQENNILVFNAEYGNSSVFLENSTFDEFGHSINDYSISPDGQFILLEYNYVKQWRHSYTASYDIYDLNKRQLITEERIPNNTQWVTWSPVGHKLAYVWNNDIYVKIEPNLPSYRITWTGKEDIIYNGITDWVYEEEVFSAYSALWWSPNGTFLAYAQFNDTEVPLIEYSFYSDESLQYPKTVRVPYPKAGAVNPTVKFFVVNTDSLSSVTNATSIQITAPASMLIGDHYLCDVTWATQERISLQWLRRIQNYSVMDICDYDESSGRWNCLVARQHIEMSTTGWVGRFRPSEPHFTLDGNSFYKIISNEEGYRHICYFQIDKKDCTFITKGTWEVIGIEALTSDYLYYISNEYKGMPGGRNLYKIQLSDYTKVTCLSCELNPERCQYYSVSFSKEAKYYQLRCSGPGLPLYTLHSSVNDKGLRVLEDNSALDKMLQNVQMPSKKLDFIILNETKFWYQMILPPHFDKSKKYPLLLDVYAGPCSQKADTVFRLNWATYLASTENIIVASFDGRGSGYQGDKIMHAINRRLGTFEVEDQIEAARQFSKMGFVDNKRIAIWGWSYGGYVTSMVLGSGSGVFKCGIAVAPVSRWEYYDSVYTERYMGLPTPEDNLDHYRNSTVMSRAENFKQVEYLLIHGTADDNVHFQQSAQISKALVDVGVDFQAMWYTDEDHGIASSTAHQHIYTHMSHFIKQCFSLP
In words: Inhibition of enzymatic activity of DPIV (fluorogenic substrate hydrolysis). In kind it is biochemical. As to conditions: highest test item concentration 25 μM; for IC50: read-out: meas. IC50 (DPIV). The method in brief:
as §1

Structures are written as SMILES. Read-outs that look alike come from different tables or passages of the source.

From patent publication US20120028995A1, “NOVEL COMPOUNDS FOR MEDICAL USE AS PEPTIDASE EFFECTORS” (IMTM GMBH, priority 2010, published 2012) come the findings set out here.

T1 sequence (P55786 whole entry): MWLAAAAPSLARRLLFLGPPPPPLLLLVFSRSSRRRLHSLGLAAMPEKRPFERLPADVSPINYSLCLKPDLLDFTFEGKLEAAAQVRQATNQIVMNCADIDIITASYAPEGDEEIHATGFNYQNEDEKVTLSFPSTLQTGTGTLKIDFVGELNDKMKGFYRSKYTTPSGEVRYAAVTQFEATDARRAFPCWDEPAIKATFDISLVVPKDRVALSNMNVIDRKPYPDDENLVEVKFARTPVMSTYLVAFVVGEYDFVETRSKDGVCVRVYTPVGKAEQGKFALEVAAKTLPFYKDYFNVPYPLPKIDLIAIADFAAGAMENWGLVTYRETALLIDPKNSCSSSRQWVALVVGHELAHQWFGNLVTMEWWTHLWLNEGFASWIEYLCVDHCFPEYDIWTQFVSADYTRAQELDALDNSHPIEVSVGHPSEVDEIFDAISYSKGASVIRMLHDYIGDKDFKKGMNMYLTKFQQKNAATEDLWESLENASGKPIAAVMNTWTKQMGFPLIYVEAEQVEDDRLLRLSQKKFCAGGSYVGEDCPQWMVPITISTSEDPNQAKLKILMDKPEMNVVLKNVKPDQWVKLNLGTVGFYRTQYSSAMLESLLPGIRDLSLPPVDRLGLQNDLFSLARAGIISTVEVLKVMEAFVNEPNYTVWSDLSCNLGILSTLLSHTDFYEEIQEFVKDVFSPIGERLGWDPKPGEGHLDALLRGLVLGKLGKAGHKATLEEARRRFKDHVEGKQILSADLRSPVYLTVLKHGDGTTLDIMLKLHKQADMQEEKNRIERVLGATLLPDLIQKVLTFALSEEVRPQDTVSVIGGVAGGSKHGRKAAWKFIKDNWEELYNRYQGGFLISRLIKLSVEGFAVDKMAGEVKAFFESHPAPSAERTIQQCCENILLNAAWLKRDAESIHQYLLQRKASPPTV

As for `CC(C)NC(CC(=O)NCC(C)(C)CNC(=O)C(O)C(N)COCc1ccccc1)Cc1cc(F)ccc1F` (centres unmarked) [Compound C19.029], the IC50 in assay [1] is 24.3 µM; in assay [2] (NHEK, 48 h), 34.8 µM; in assay [3] (Homo sapiens, 48 h) it was 29.4 µM; in assay [4], 0.33 µM; in assay [5], 92.7 µM; in assay [6] it was 0.59 µM. Also, in assay [7], the IC50 is 14.5 µM.

Take `CC(C)(CNC(=O)CC(Cc1cc(F)ccc1F)Nc1ccc([N+](=O)[O-])c2nonc12)CNC(=O)C(O)C(COCc1ccccc1)Nc1ccc([N+](=O)[O-])c2nonc12` (centres unmarked) [Compound C19.030]: the “meas. IC50 (DP8/9)” value in assay [1] was “no in- hibition”. The IC50 in assay [2] (48 hours) stood at 7.55 µM; in assay [3] (PHA-stimulated human T cells, 48 hours), 18.2 µM; in assay [5] it was 29.7 µM. Further, the “meas. IC50 (cAAP)” value in assay [4] is “no in- hibition”. In addition, the “meas. IC50 (APN)” value in assay [6] is recorded as “no in- hibition”. The “meas. IC50 (DPIV)” value in assay [7] was “No in- hibition”.

As to `NC(CNC(=O)c1cccc(NC(=O)C(O)C(N)COCc2ccccc2)c1)Cc1cc(F)ccc1F` (centres unmarked) [Compound C19.031], the IC50 in assay [1] was 13.3 µM; in assay [2] (NHEK, 48 h), 20.1 µM; in assay [3] (Homo sapiens, 48 h), 58.2 µM; in assay [4] it was 0.18 µM; in assay [5] it was at least 119 µM; in assay [6], 0.012 µM. The IC50 in assay [7] was 2.3 µM.

With `NC(CCCCNC(=O)C(O)C(N)Cc1ccccc1)C(=O)N1CCSC1` (centres unmarked) [Compound C21.001], the IC50 was found to be 0.02 µM in assay [1]; 77 µM in assay [2] (NHEK, 48 h); 90.1 µM in assay [3] (Homo sapiens, 48 h); 0.066 µM in assay [4]; 65.5 µM in assay [5]; 0.178 µM in assay [6]. Moreover, in assay [7], the IC50 was determined as 0.11 µM.

`CC(C)(C)OC(=O)NC(CCCCNC(=O)C(O)C(Cc1ccccc1)NC(=O)OC(C)(C)C)C(=O)N1CCSC1` (centres unmarked) [Compound C21.002]: the “meas. IC50 (DP8/9)” value in assay [1] was “no in- hibition”. Further, the IC50 in assay [2] (NHEK, 48 h) was found to be 49.3 µM; in assay [3] (Homo sapiens, 48 h), 55.1 µM; in assay [5], 61.6 µM. The “meas. IC50 (cAAP)” value in assay [4] was “no in- hibition”. In addition, the “meas. IC50 (APN)” value in assay [6] is on record as “no in- hibition”. In addition, in assay [7], the “meas. IC50 (DPIV)” value is “no in- hibition”.

In the case of `NC(CCCCNC(=O)c1cccc(NC(=O)C(O)C(N)Cc2ccccc2)c1)C(=O)N1CCSC1` (centres unmarked) [Compound C21.003], the IC50 is 0.054 µM in assay [1]; 62 µM in assay [2] (NHEK, 48 h); 157 µM in assay [3] (Homo sapiens, 48 h); 0.13 µM in assay [4]; at least 200 µM in assay [5]; 0.62 µM in assay [6]. For the same compound, the IC50 in assay [7] was found to be 0.07 µM.

As for `CC(C)(C)OC(=O)NC(CCCCNC(=O)c1cccc(NC(=O)C(O)C(Cc2ccccc2)NC(=O)OC(C)(C)C)c1)C(=O)N1CCSC1` (centres unmarked) [Compound C21.004], the “meas. IC50 (DP8/9)” value in assay [1] was “no in- hibition”. Also, the IC50 is 13.9 µM in assay [2] (NHEK, 48 h); 12 µM in assay [3] (Homo sapiens, 48 h); 19.4 µM in assay [5]. For the same compound, the “meas. IC50 (cAAP)” value in assay [4] was “no in- hibition”. In addition, the “meas. IC50 (APN)” value in assay [6] was “no in- hibition”. Moreover, the “meas. IC50 (DPIV)” value in assay [7] is on record as “no in- hibition”.

In the case of `CC(=O)SC(C(=O)NCCCCC(NC(=O)OC(C)(C)C)C(=O)N1CCSC1)C(Cc1ccccc1)NC(=O)OC(C)(C)C` (centres unmarked) [Compound C22.001], in assay [1], the “meas. IC50 (DP8/9)” value is on record as “no in- hibition”. The IC50 was at least 200 µM in assay [2] (NHEK, 48 h); 136 µM in assay [3] (Homo sapiens, 48 h); 0.57 µM in assay [4]; 57.1 µM in assay [5]. Moreover, the “meas. IC50 (APN)” value in assay [6] was “no in- hibition”. For the same compound, the “meas. IC50 (DPIV)” value in assay [7] is on record as “no in- hibition”.

For the compound `CC(C)(C)OC(=O)NC(CCCCNC(=O)C(S)C(Cc1ccccc1)NC(=O)OC(C)(C)C)C(=O)N1CCSC1` (centres unmarked) [Compound C22.002], the “meas. IC50 (DP8/9)” value in assay [1] was “no in- hibition”. The IC50 was 85.2 µM in assay [2] (NHEK, 48 h); 54.1 µM in assay [3] (Homo sapiens, 48 h); 1 µM in assay [4]; at least 200 µM in assay [5]. Besides, the “meas. IC50 (APN)” value in assay [6] was “no in- hibition”. The “meas. IC50 (DPIV)” value in assay [7] was “no in- hibition”.

Consider `NC(CCCCNC(=O)C(S)C(N)Cc1ccccc1)C(=O)N1CCSC1` (centres unmarked) [Compound C22.003], for which the IC50 in assay [1] came out at 0.34 µM; in assay [2] (NHEK, 48 h), 38.9 µM; in assay [3] (Homo sapiens, 48 h) it was 30.2 µM; in assay [4] it was 3.5 µM; in assay [5] it was 75.2 µM; in assay [6], 3.79 µM. Besides, the IC50 in assay [7] stood at 0.032 µM.

As for `CC(C)[C@@H]1CC[C@@H](C)CC1OC(=O)CC(Cc1cc(F)ccc1F)NC(=O)OC(C)(C)C` (some centres unmarked) [Compound C-122], the “meas. IC50 (DP8/9)” value in assay [1] was “no in- hibition”. For the same compound, the IC50 turned out to be 69.4 µM in assay [2] (NHEK, 48 h); 5.83 µM in assay [3] (Homo sapiens, 48 h); 65.2 µM in assay [5]. Moreover, the “meas. IC50 (cAAP)” value in assay [4] was “no in- hibition”. The “meas. IC50 (APN)” value in assay [6] is “no in- hibition”. Besides, the “meas. IC50 (DPIV)” value in assay [7] is “no in- hibition”.
